{
  "source": "PubChem BioAssay (NCI)",
  "assay_in_all_cases": "NCI tumour cell line growth inhibition, 48 h",
  "key": {"786-0 renal": {"test_system": "786-0 renal"}, "A498 renal": {"test_system": "A498 renal"}, "A549 NSCLC": {"test_system": "A549 NSCLC"}, "ACHN renal": {"test_system": "ACHN renal"}, "CAKI-1 renal": {"test_system": "CAKI-1 renal"}, "CCRF-CEM leukemia": {"test_system": "CCRF-CEM leukemia"}, "COLO 205 colon": {"test_system": "COLO 205 colon"}, "DLD-1 colon": {"test_system": "DLD-1 colon"}, "DMS 114 small cell lung": {"test_system": "DMS 114 small cell lung"}, "DMS 273 small cell lung": {"test_system": "DMS 273 small cell lung"}, "EKVX NSCLC": {"test_system": "EKVX NSCLC"}, "HCC-2998 colon": {"test_system": "HCC-2998 colon"}, "HCT-116 colon": {"test_system": "HCT-116 colon"}, "HCT-15 colon": {"test_system": "HCT-15 colon"}, "HL-60(TB) leukemia": {"test_system": "HL-60(TB) leukemia"}, "HOP-18 NSCLC": {"test_system": "HOP-18 NSCLC"}, "HOP-62 NSCLC": {"test_system": "HOP-62 NSCLC"}, "HOP-92 NSCLC": {"test_system": "HOP-92 NSCLC"}, "HT29 colon": {"test_system": "HT29 colon"}, "IGROV1 ovarian": {"test_system": "IGROV1 ovarian"}, "K-562 leukemia": {"test_system": "K-562 leukemia"}, "KM12 colon": {"test_system": "KM12 colon"}, "KM20L2 colon": {"test_system": "KM20L2 colon"}, "LOX IMVI melanoma": {"test_system": "LOX IMVI melanoma"}, "LXFL 529 NSCLC": {"test_system": "LXFL 529 NSCLC"}, "M14 melanoma": {"test_system": "M14 melanoma"}, "M19-MEL melanoma": {"test_system": "M19-MEL melanoma"}, "MALME-3M melanoma": {"test_system": "MALME-3M melanoma"}, "MCF7 breast": {"test_system": "MCF7 breast"}, "MOLT-4 leukemia": {"test_system": "MOLT-4 leukemia"}, "NCI-H226 lung": {"test_system": "NCI-H226 lung"}, "NCI-H23 lung": {"test_system": "NCI-H23 lung"}, "NCI-H460 lung": {"test_system": "NCI-H460 lung"}, "NCI-H522 lung": {"test_system": "NCI-H522 lung"}, "NCI/ADR-RES ovarian": {"test_system": "NCI/ADR-RES ovarian"}, "OVCAR-3 ovarian": {"test_system": "OVCAR-3 ovarian"}, "OVCAR-4 ovarian": {"test_system": "OVCAR-4 ovarian"}, "OVCAR-5 ovarian": {"test_system": "OVCAR-5 ovarian"}, "OVCAR-8 ovarian": {"test_system": "OVCAR-8 ovarian"}, "P388 leukemia": {"test_system": "P388 leukemia"}, "P388/ADR leukemia": {"test_system": "P388/ADR leukemia"}, "RPMI-8226 leukemia": {"test_system": "RPMI-8226 leukemia"}, "RXF 393 renal": {"test_system": "RXF 393 renal"}, "SF-268 CNS": {"test_system": "SF-268 CNS"}, "SF-295 CNS": {"test_system": "SF-295 CNS"}, "SF-539 CNS": {"test_system": "SF-539 CNS"}, "SK-MEL-2 melanoma": {"test_system": "SK-MEL-2 melanoma"}, "SK-MEL-28 melanoma": {"test_system": "SK-MEL-28 melanoma"}, "SK-MEL-5 melanoma": {"test_system": "SK-MEL-5 melanoma"}, "SK-OV-3 ovarian": {"test_system": "SK-OV-3 ovarian"}, "SN12C renal": {"test_system": "SN12C renal"}, "SN12K1 renal": {"test_system": "SN12K1 renal"}, "SNB-19 CNS": {"test_system": "SNB-19 CNS"}, "SNB-75 CNS": {"test_system": "SNB-75 CNS"}, "SNB-78 CNS": {"test_system": "SNB-78 CNS"}, "SR leukemia": {"test_system": "SR leukemia"}, "SW-620 colon": {"test_system": "SW-620 colon"}, "U251 CNS": {"test_system": "U251 CNS"}, "UACC-257 melanoma": {"test_system": "UACC-257 melanoma"}, "UACC-62 melanoma": {"test_system": "UACC-62 melanoma"}, "UO-31 renal": {"test_system": "UO-31 renal"}, "XF 498 CNS": {"test_system": "XF 498 CNS"}},
  "note": "“And” between values parts separate entries of the source, which are not always exact repeats. Equal entries are not always repeated.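 Compound exposure: 48 hours, 5 concentrations, 96-well plates. GI50 marks 50% less growth. TGI is the concentration that stops growth completely.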",
  "data": [
    {"molecule": "CCCSc1nc(COC(=O)NC)c(COC(=O)NC)n1C", "values": [
      {"measurement": "TGI", "setting": "786-0 renal", "result": "> 100", "unit": "µM"},
      {"measurement": "TGI", "setting": "A498 renal", "result": "> 100", "unit": "µM"},
      {"measurement": "TGI", "setting": "A549 NSCLC", "result": "> 100", "unit": "µM"},
      {"measurement": "TGI", "setting": "ACHN renal", "result": 72.3, "unit": "µM"},
      {"measurement": "TGI", "setting": "CAKI-1 renal", "result": "> 100", "unit": "µM"},
      {"measurement": "TGI", "setting": "CCRF-CEM leukemia", "result": "86.1 µM and > 64.3 µM"},
      {"measurement": "TGI", "setting": "COLO 205 colon", "result": "> 100", "unit": "µM"},
      {"measurement": "TGI", "setting": "DLD-1 colon", "result": "> 100", "unit": "µM"},
      {"measurement": "TGI", "setting": "DMS 114 small cell lung", "result": "> 100", "unit": "µM"},
      {"measurement": "TGI", "setting": "DMS 273 small cell lung", "result": "> 100", "unit": "µM"},
      {"measurement": "TGI", "setting": "EKVX NSCLC", "result": "> 100", "unit": "µM"},
      {"measurement": "TGI", "setting": "HCC-2998 colon", "result": "> 100", "unit": "µM"},
      {"measurement": "TGI", "setting": "HCT-116 colon", "result": "> 100", "unit": "µM"},
      {"measurement": "TGI", "setting": "HCT-15 colon", "result": "> 100", "unit": "µM"},
      {"measurement": "TGI", "setting": "HL-60(TB) leukemia", "result": "89.6 µM and > 100 µM"},
      {"measurement": "TGI", "setting": "HOP-18 NSCLC", "result": "> 100", "unit": "µM"},
      {"measurement": "TGI", "setting": "HOP-62 NSCLC", "result": "> 100", "unit": "µM"},
      {"measurement": "TGI", "setting": "HOP-92 NSCLC", "result": "> 100", "unit": "µM"},
      {"measurement": "TGI", "setting": "HT29 colon", "result": "> 100", "unit": "µM"},
      {"measurement": "TGI", "setting": "IGROV1 ovarian", "result": "> 100", "unit": "µM"},
      {"measurement": "TGI", "setting": "K-562 leukemia", "result": "> 100", "unit": "µM"},
      {"measurement": "TGI", "setting": "KM12 colon", "result": "> 100", "unit": "µM"},
      {"measurement": "TGI", "setting": "KM20L2 colon", "result": "> 100", "unit": "µM"},
      {"measurement": "TGI", "setting": "LOX IMVI melanoma", "result": "> 100", "unit": "µM"},
      {"measurement": "TGI", "setting": "LXFL 529 NSCLC", "result": "> 100", "unit": "µM"},
      {"measurement": "TGI", "setting": "M14 melanoma", "result": "> 100", "unit": "µM"},
      {"measurement": "TGI", "setting": "M19-MEL melanoma", "result": "> 100", "unit": "µM"},
      {"measurement": "TGI", "setting": "MALME-3M melanoma", "result": "> 100", "unit": "µM"},
      {"measurement": "TGI", "setting": "MCF7 breast", "result": "> 100", "unit": "µM"},
      {"measurement": "TGI", "setting": "MOLT-4 leukemia", "result": "56.6 µM and > 70 µM"},
      {"measurement": "TGI", "setting": "NCI-H226 lung", "result": "> 100", "unit": "µM"},
      {"measurement": "TGI", "setting": "NCI-H23 lung", "result": "> 100", "unit": "µM"},
      {"measurement": "TGI", "setting": "NCI-H460 lung", "result": "> 100", "unit": "µM"},
      {"measurement": "GI50", "setting": "NCI-H522 lung", "result": "22.1 µM and 55.5 µM"},
      {"measurement": "TGI", "setting": "NCI-H522 lung", "result": "45.1 µM and > 100 µM"},
      {"measurement": "TGI", "setting": "NCI/ADR-RES ovarian", "result": "> 100", "unit": "µM"},
      {"measurement": "TGI", "setting": "OVCAR-3 ovarian", "result": "> 100", "unit": "µM"},
      {"measurement": "TGI", "setting": "OVCAR-4 ovarian", "result": "> 100", "unit": "µM"},
      {"measurement": "TGI", "setting": "OVCAR-5 ovarian", "result": "> 100", "unit": "µM"},
      {"measurement": "TGI", "setting": "OVCAR-8 ovarian", "result": "> 100", "unit": "µM"},
      {"measurement": "TGI", "setting": "P388 leukemia", "result": 54.8, "unit": "µM"},
      {"measurement": "TGI", "setting": "P388/ADR leukemia", "result": 61.8, "unit": "µM"},
      {"measurement": "TGI", "setting": "RPMI-8226 leukemia", "result": "57.4 µM and > 94.9 µM"},
      {"measurement": "TGI", "setting": "RXF 393 renal", "result": "> 100", "unit": "µM"},
      {"measurement": "GI50", "setting": "SF-268 CNS", "result": "44.4 µM and > 100 µM"},
      {"measurement": "TGI", "setting": "SF-268 CNS", "result": "> 100", "unit": "µM"},
      {"measurement": "TGI", "setting": "SF-295 CNS", "result": "> 100", "unit": "µM"},
      {"measurement": "TGI", "setting": "SF-539 CNS", "result": "> 100", "unit": "µM"},
      {"measurement": "TGI", "setting": "SK-MEL-2 melanoma", "result": "> 100", "unit": "µM"},
      {"measurement": "TGI", "setting": "SK-MEL-28 melanoma", "result": "> 100", "unit": "µM"},
      {"measurement": "TGI", "setting": "SK-MEL-5 melanoma", "result": "> 100", "unit": "µM"},
      {"measurement": "TGI", "setting": "SK-OV-3 ovarian", "result": "> 100", "unit": "µM"},
      {"measurement": "TGI", "setting": "SN12C renal", "result": "> 100", "unit": "µM"},
      {"measurement": "TGI", "setting": "SN12K1 renal", "result": "> 100", "unit": "µM"},
      {"measurement": "TGI", "setting": "SNB-19 CNS", "result": "> 100", "unit": "µM"},
      {"measurement": "TGI", "setting": "SNB-75 CNS", "result": "> 100", "unit": "µM"},
      {"measurement": "TGI", "setting": "SNB-78 CNS", "result": "> 100", "unit": "µM"},
      {"measurement": "TGI", "setting": "SR leukemia", "result": "> 100", "unit": "µM"},
      {"measurement": "TGI", "setting": "SW-620 colon", "result": "> 100", "unit": "µM"},
      {"measurement": "TGI", "setting": "U251 CNS", "result": "> 100", "unit": "µM"},
      {"measurement": "TGI", "setting": "UACC-257 melanoma", "result": "> 100", "unit": "µM"},
      {"measurement": "TGI", "setting": "UACC-62 melanoma", "result": "> 100", "unit": "µM"},
      {"measurement": "TGI", "setting": "UO-31 renal", "result": "> 100", "unit": "µM"},
      {"measurement": "TGI", "setting": "XF 498 CNS", "result": "> 100", "unit": "µM"}
    ]}
  ]
}
